Each compound was assayed against activated ERK2 (Homo sapiens, UniProt P28482) (assay: ERK2 inhibition assay, spectrophotometric coupled-enzyme assay). Details: activated ERK2 10 nM, 65 μM ATP, 200 μM erktide peptide, 30° C., pH 7.5.
activated ERK2, sequence (P28482 whole entry): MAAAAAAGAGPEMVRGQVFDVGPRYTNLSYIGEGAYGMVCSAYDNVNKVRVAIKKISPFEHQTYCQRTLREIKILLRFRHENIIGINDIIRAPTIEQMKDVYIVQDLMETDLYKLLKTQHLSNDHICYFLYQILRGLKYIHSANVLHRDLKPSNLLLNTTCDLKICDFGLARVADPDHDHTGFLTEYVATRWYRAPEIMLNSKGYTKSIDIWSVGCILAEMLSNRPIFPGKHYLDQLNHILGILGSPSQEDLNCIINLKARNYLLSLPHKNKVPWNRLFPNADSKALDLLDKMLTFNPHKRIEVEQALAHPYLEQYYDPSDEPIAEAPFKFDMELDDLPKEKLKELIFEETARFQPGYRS
Type: biochemical
Procedure: In this assay, a fixed concentration of activated ERK2 (10 nM) was incubated with various concentrations of a compound of the present invention in DMSO (2.5%) for 10 min. at 30° C. in 0.1 M HEPES buffer (pH 7.5), containing 10 mM MgCl2, 2.5 mM phosphoenolpyruvate, 200 μM NADH, 150 μg/ml pyruvate kinase, 50 μg/ml lactate dehydrogenase, and 200 μM erktide peptide.
`Cc1cnc(Nc2ccc(Cl)cc2Cl)nc1-c1c[nH]c(C(=O)NC(CO)c2ccccc2)c1` (centres unmarked) [Compound I-3] showed a Ki of under 100 nM.
In the case of `Cc1cnc(Nc2ccc([N+](=O)[O-])cc2Cl)nc1-c1c[nH]c(C(=O)NC(CO)c2ccccc2)c1` (centres unmarked) [Compound I-4], the Ki is reported as under 100 nM.
`Cc1cnc(Nc2cccc(Cl)c2Cl)nc1-c1c[nH]c(C(=O)NC(CO)c2ccccc2)c1` (centres unmarked) [Compound I-6] showed a Ki of under 100 nM.
Work on `Cc1cnc(Nc2c(Cl)cccc2Cl)nc1-c1c[nH]c(C(=O)NC(CO)c2ccccc2)c1` (centres unmarked) [Compound I-8] yielded a Ki of over 100 nM.
With `Cc1cnc(Nc2c(C)cccc2Cl)nc1-c1c[nH]c(C(=O)NC(CO)c2ccccc2)c1` (centres unmarked) [Compound I-9] the Ki was over 100 nM.
Compound `Cc1cccc(C(CO)NC(=O)c2cc(-c3nc(Nc4ccccc4Cl)ncc3C)c[nH]2)c1` (centres unmarked) [Compound I-10] has a Ki of under 100 nM.
For `Cc1cnc(Nc2ccccc2Cl)nc1-c1c[nH]c(C(=O)NC(CO)c2cccc(C(F)(F)F)c2)c1` (centres unmarked) [Compound I-11], the Ki was under 100 nM.
Work on `Cc1cnc(Nc2c(F)cccc2Cl)nc1-c1c[nH]c(C(=O)NC(CO)c2ccccc2)c1` (centres unmarked) [Compound I-12] yielded a Ki of under 100 nM.

From US7501415B2, “Selective inhibitors of ERK protein kinase and uses thereof” (Vertex Pharmaceuticals Incorporated, priority 2004, dated 2009)
